According to patent US20040102423A1, “Spironolactone and angiotensin II antagonist combination therapy for treatment of congestive heart failure” (G.D. Searle & Co., priority 1995, published 2004):

Experiments:
[1] = target: angiotensin II AT1 receptor; experiment: Assay A: Angiotensin II binding activity, rat uterine membrane preparation, 125I-AII displacement
rabbit aortic rings = experiment: Assay B: In vitro vascular smooth muscle response for AII (antagonist activity, pA2); format: cell-based; conditions: Oryctolagus cuniculus, two values in a cell = two determinations
Description: Assay B: In Vitro Vascular Smooth Muscle-Response for AII
The compounds of the invention were tested for antagonist activity in rabbit aortic rings. Male New Zealand white rabbits (2-2.5 kg) were sacrificed using an overdose of pentobarbital and exsanguinated via the carotid arteries. The thoracic aorta was removed, cleaned of adherent fat and connective tissue and then cut into 3-mm ring segments. The endothelium was removed from the rings by gently sliding a rolled-up piece of filter paper into the vessel lumen. The rings were then mounted in a water-jacketed tissue bath, maintained at 37° C., between moveable and fixed ends of a stainless steel wire with the moveable end attached to an FT03 Grass transducer coupled to a Model 7D Grass Polygraph for recording isometric force responses. The bath was filled with 20 ml of oxygenated (95% oxygen/5% carbon dioxide) Krebs solution of the following composition (mM): 130 NaCl, 15 NaHCO3, […], 1.2 NaH2PO4, 1.2 MgSO4, 2.5 CaCl2, and 11.4 glucose. The preparations were equilibrated for one hour before approximately one gram of passive tension was placed on the rings. Angiotensin II concentration-response curves were then recorded (3×10^−10 to 1×10^−5 M). Each concentration of AII was allowed to elicit its maximal contraction, and then AII was washed out repeatedly for 30 minutes before rechallenging with a higher concentration of AII. Aorta rings were exposed to the test antagonist at 10^−5 M for 5 minutes before challenging with AII. Adjacent segments of the same aorta ring were used for all concentration-response curves in the presence or absence of the test antagonist. The effectiveness of the test compound was expressed in terms of pA2 values and were calculated according to H. O. Schild [Br. J. Pharmacol. Chemother., 2, 189-206 (1947)]. The pA2 value is […] which increases the EC50 value for AII by a factor of two. Each test antagonist was evaluated in aorta rings from two rabbits.

Structure (SMILES) | IC50 [1] | Kb (rabbit aortic rings)
CCCCc1nc(C(F)(F)CCC)nn1Cc1ccc(-c2ccccc2-c2nnn[nH]2)nc1 [Compound 258] | 350 nM | 145 nM
CCCCc1nc(CCCN)n(Cc2ccc(-c3ccccc3-c3nnn[nH]3)cc2)n1 [Compound 82] | 7.9 nM | 3.16 nM
CCCCc1nn(CCC2CCCCC2)c(=O)n1Cc1ccc(-c2ccccc2-c2nn[nH]n2)cc1 [Compound 100] | 4.4 nM | 0.398 nM
CCCCc1nn(CC(=O)OCC)c(=O)n1Cc1ccc(-c2ccccc2-c2nn[nH]n2)cc1 [Compound 97] | 280 nM | 20 nM
CCCCc1nn(CC(=O)c2cc(OC)ccc2OC)c(=O)n1Cc1ccc(-c2ccccc2-c2nn[nH]n2)cc1 [Compound 107] | 180 nM | 5.01 nM
CCCCn1nc(C(F)(F)CCC)nc1Cc1ccc(-c2ccccc2-c2nnn[nH]2)cc1 [Compound 141] | 0.11 nM | 9.55 nM
CCCCc1cn(CCc2cccs2)c(=O)n1Cc1ccc(-c2ccccc2-c2nnn[nH]2)cc1 [Compound 145] | 0.48 nM | 200 nM
CCCCc1nc(CNC(=O)OC(C)(C)C)nn1Cc1ccc(-c2ccccc2-c2nnn[nH]2)cc1 [Compound 46] | 110 nM | 158 nM
CCCCc1nn(C(CC(=O)OCC)C(=O)c2ccccc2)c(=O)n1Cc1ccc(-c2ccccc2-c2nn[nH]n2)cc1 (stereo not shown) [Compound 112] | 2000 nM | 6310 nM
CCCCc1cn(-c2c(C)cccc2C)c(=O)n1Cc1ccc(-c2ccccc2-c2nnn[nH]2)nc1 [Compound 233] | 84 nM | 3.09 nM
CCCCc1nc(CCCC)n(Cc2ccc(-n3c(Cl)cc(Cl)c3-c3nnn[nH]3)cc2)n1 [Compound 154] | 97 nM | 6.46 nM
CCCCc1cn(-c2ccccc2Cl)c(=O)n1Cc1ccc(-c2ccccc2-c2nnn[nH]2)cc1 [Compound 146] | 0.072 nM | 398 nM
CCCCc1nn(CCC(C)CC(C)(C)C)c(=O)n1Cc1ccc(-c2ccccc2-c2nn[nH]n2)cc1 (stereo not shown) [Compound 103] | 12 nM | 10 nM
CCCCc1cn(CCc2ccccc2)c(=O)n1Cc1ccc(-c2ccccc2-c2nnn[nH]2)cc1 [Compound 144] | 0.088 nM | 20 nM
CCCCn1nc(C(C#N)CCC)n(Cc2ccc(-c3ccccc3-c3nn[nH]n3)cc2)c1=O (stereo not shown) [Compound 117] | 170 nM | 316 nM
CCCCc1nc(CC2CCCCC2)n(Cc2ccc(-c3ccccc3-c3nnn[nH]3)cc2)n1 [Compound 84] | 16 nM | 79.4 nM
CCCCc1nc(CCCC)n(Cc2ccc(-c3ccccc3C(=O)O)cc2)n1 [Compound 13] | 17 nM | 2 nM
CCCCc1nc(-c2c(F)cccc2F)nn1Cc1ccc(-c2ccccc2-c2nnn[nH]2)nc1 [Compound 280] | 480 nM | 389 nM
CCCCc1ncnn1Cc1ccc(-c2ccccc2-c2nnn[nH]2)cc1 [Compound 64] | 54 nM | 100 nM
CCCCc1nc(C)n(Cc2ccc(-c3ccccc3C(=O)O)cc2)n1 [Compound 88] | 50 nM | 20 nM
CCCCc1nc(C(F)F)nn1Cc1ccc(-c2ccccc2-c2nnn[nH]2)cc1 [Compound 58] | 140 nM | 355 nM
CCCCc1nc(Cc2ccc(-c3ccccc3C(=O)O)cc2)n(CCCC)n1 [Compound 137] | 220 nM | 5.01 nM
CCCCc1nc(C(F)(F)Cc2ccccc2)nn1Cc1ccc(-c2ccccc2-c2nnn[nH]2)cc1 [Compound 62] | 26 nM | 2.04 nM
CCCCn1nc(C(=O)NC(C)(C)C)nc1Cc1ccc(-c2ccccc2-c2nnn[nH]2)nc1 [Compound 184] | 1100 nM | 166 nM
CCCCc1nc(CCc2ccccc2)nn1Cc1ccc(-c2ccccc2-c2nnn[nH]2)cc1 [Compound 37] | 340 nM | 126 nM
CCCCn1nc(C(F)CCC)nc1Cc1ccc(-c2ccccc2-c2nnn[nH]2)nc1 (stereo not shown) [Compound 172] | 70 nM | 70.8 nM
CCCCc1nn(C/C=C/c2ccccc2)c(=O)n1Cc1ccc(-c2ccccc2-c2nn[nH]n2)cc1 [Compound 116] | 230 nM | 316 nM

More lines, in order of falling IC50 [1], values ahead:

IC50 [1] | Structure (SMILES) | Kb (rabbit aortic rings)
2300 nM | CCCCc1nc(CCCO)n(Cc2ccc(-c3ccccc3-c3nnn[nH]3)cc2)n1 [Compound 57] | 1000 nM
790 nM | CCCCc1nc(CC23CC4CC(CC(C4)C2)C3)nn1Cc1ccc(-c2ccccc2-c2nnn[nH]2)cc1 [Compound 73] | 22.4 nM
590 nM | CCCCc1nn(Cc2ccc3ccccc3c2)c(=O)n1Cc1ccc(-c2ccccc2-c2nn[nH]n2)cc1 [Compound 110] | 398 nM
530 nM | CCCCc1nc(CC(CC)CC)nn1Cc1ccc(-c2ccccc2-c2nnn[nH]2)nc1 [Compound 262] | 603 nM
460 nM | CCCCc1nc(C(F)(F)CCC)n(Cc2ccc(-c3ccccc3-c3nnn[nH]3)cc2)n1 [Compound 22] | 251 nM
400 nM | CCCCc1nn(CCCCC(=O)O)c(=O)n1Cc1ccc(-c2ccccc2-c2nn[nH]n2)cc1 [Compound 114] | 398 nM
280 nM | CCCCc1nn(Cc2cccc3ccccc23)c(=O)n1Cc1ccc(-c2ccccc2-c2nn[nH]n2)cc1 [Compound 99] | 316 nM
190 nM | CCCCc1nc(-c2ccccc2OC)n(Cc2ccc(-c3ccccc3-c3nnn[nH]3)nc2)n1 [Compound 277] | 288 nM
180 nM | CCCCn1nc(C(F)F)nc1Cc1ccc(-c2ccccc2-c2nnn[nH]2)nc1 [Compound 174] | 51.3 nM
72 nM | CCCCc1cn(-c2c(C(C)C)cccc2C(C)C)c(=O)n1Cc1ccc(-c2ccccc2-c2nnn[nH]2)nc1 [Compound 246] | 34.7 nM
48 nM | CCCCc1nn(C(=O)CCC)c(=O)n1Cc1ccc(-c2ccccc2-c2nn[nH]n2)cc1 [Compound 106] | 20 nM
43 nM | CCCCc1nn(CC(OCC(=O)O)c2ccccc2)c(=O)n1Cc1ccc(-c2ccccc2-c2nn[nH]n2)cc1 (stereo not shown) [Compound 102] | 20 nM
30 nM | CCCCc1nn(CC(=O)C23CC4CC(CC(C4)C2)C3)c(=O)n1Cc1ccc(-c2ccccc2-c2nn[nH]n2)cc1 [Compound 91] | 2.51 nM
10 nM | CCCCCCCCc1nc(CCCC)nn1Cc1ccc(-c2ccccc2-c2nnn[nH]2)cc1 [Compound 39] | 13.2 nM
6.5 nM | CCCCc1nc(CCC(=O)O)nn1Cc1ccc(-c2ccccc2-c2nnn[nH]2)cc1 [Compound 74] | 2.75 nM
6.4 nM | CCCCc1nc(CCCC)n(Cc2ccc(-c3ccccc3C(=O)NNS(=O)(=O)C(F)(F)F)cc2)n1 [Compound 16] | 1.12 nM
4.9 nM | CCCCc1nc(CCCNC(=O)OC(C)(C)C)nn1Cc1ccc(-c2ccccc2-c2nnn[nH]2)cc1 [Compound 79] | 0.631 nM
3.6 nM | CCCCc1nc(CCCN)nn1Cc1ccc(-c2ccccc2-c2nnn[nH]2)cc1 [Compound 83] | 5.01 nM
1.1 nM | CCCc1cn(CCC)c(=O)n1Cc1ccc(-c2ccccc2-c2nnn[nH]2)cc1 [Compound 149] | 794 nM
0.031 nM | CCCCc1nc(Cc2ccc(-c3ccccc3-c3nnn[nH]3)cc2)nn1CCCC [Compound 140] | 7.94 nM
